{
  "source": "paper PMC4601023",
  "about": "“Novel anticancer agent, SQAP, binds to focal adhesion kinase and modulates its activity” (Scientific Reports, 2015)",
  "key": {"FAK (910–1052)": {"target": "T1, FAK (910–1052) (Homo sapiens, UniProt Q05397)", "T1 construct": "For FAK (910–1052) DNA was amplified; made in house; host or cells: E. coli BL21 (DE3)", "T1 sequence (Q05397 910-1052)": "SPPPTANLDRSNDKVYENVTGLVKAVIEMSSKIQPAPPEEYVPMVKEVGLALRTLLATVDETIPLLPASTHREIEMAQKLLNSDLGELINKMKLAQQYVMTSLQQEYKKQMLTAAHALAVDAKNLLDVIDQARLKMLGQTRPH", "test": "SPR analysis, immobilized His-tagged FAK (910-1052)", "assay_type": "binding", "settings": "Biacore 3000, CM5 chip, 25 °C, read-out: dissociation constant (KD) for FAK", "excerpt": "(§1) SPR was utilized as an independent confirmation of the kinetic parameters between SQAP and the putative binding proteins. […] The recombinant proteins were then expressed in Escherichia coli and purified to homogeneity. In addition, full length, His-tagged ADRM1 and GST-tagged HR23B (GST-HR23B) were also used. The proteins were first immobilized on a CM5 sensor chip of the SPR biosensor (Biacore 3000). For GST-HR23B analysis, a GST protein was additionally immobilized and used as a control in order to eliminate possible nonspecific binding of SQAP. SQAP samples at different concentrations were then injected over the proteins immobilized on the sensor chip. As a negative control we used sulfoquynovosylpropanediol (SQP), which lacks the fatty acid moiety of SQAP (Fig. 1). […]\n(§2) The binding kinetics of SCP-2, MFE-2, ADRM1, HR23B and FAK with SQAP and SQP were analyzed on a Biacore 3000 instrument (GE Healthcare, Little Chalfont, UK). […] The buffer of purified peptides was exchanged to HBS-P (150 mM NaCl, 0.005% Surfactant P20, 10 mM HEPES-NaOH pH 7.4) using a PD 10 column (GE Healthcare, Little Chalfont, UK) and the concentrations were quantified using DC protein assay kit (Bio-Rad Laboratories, Hercules, CA, USA). […] Kinetic parameters were determined by analyzing the data using BIAevaluation 4.1 software (GE Healthcare, Little Chalfont, UK)."}, "HUVEC cells": {"test_system": "HUVEC cells", "test": "In vitro cell migration assay (Oris kit), HUVEC", "assay_type": "cell-based, human", "settings": "96 well cell migration kit", "procedure": "Figure 6 SQAP inhibits cell migration in vitro. (A) HUVEC cells were seeded and grown to 100% confluence in 60-mm diameter dishes. After generating a single scratch in the monolayer, the cells were cultured for 11 h in medium containing 1% FBS and VEGF (50 ng/mL) in the presence or absence of SQAP. Photographs were taken immediately after 11 h. (B) The change in wound width was measured as described in the Materials and Methods. (C) A549 cells were seeded and grown to 100% confluence in 60-mm diameter dishes. After generating a single scratch in the monolayer, the cells cultured for the 25 h in media containing 1% FBS and fibronectin (10 μg/ml) treated with SQAP or vehicle. Photographs were collected immediately after wounding and after 25 h. (D) The change in wound width was measured as described in the Materials and Methods. Cell migration was additionally examined in 96 well plates. HUVEC (E) and A549 cells (F) were seeded and grown into confluence overnight. […] The fluorescent emission signal was obtained with a plate reader. […]\nWound healing was additionally assessed in HUVEC or A549 cells using a cell migration kit (Oris, Madison, WI, USA) as described by the manufacturer. […] The fluorescence emission signal in the migration zones was measured on a Wallac Arvo 5x microplate reader (Perkin Elmer, Waltham, MA, USA)."}, "[1]": {"test_system": "FAK phosphorylation (Y397, Y925) in HUVEC cells", "test": "FAK phosphorylation level in HUVEC, Western blotting", "assay_type": "cell-based, human", "procedure": "HUVEC cells were incubated for 20 h in serum-free medium in 60 mm dishes. SQAP, SQMG or SQP was added and incubated for 30 min followed by addition of 50 ng/mL VEGF (RD systems, Minneapolis, MN. USA) and incubation for another 30 min. FAK phosphorylation level was analyzed by Western blotting as described in the next section.\n(§3) Cells were harvested and solubilized in RIPA buffer (20 mM Tris-HCl, pH 7.5, 1% Sodium deoxycholate, 150 mM NaCl, 5 mM EDTA, 1% Triton X-100, 0.1% SDS, 0.1%, 1 mM PMSF, 1 mM vanadate and 1 μg/mL leupeptin). Protein quantification was determined using the DC protein assay kit (Bio-Rad, Hercules, CA, USA). A total of 15 μg of each protein sample were separated by SDS–PAGE gels and blotted onto polyvinylidene difluoride membranes (Merck, Kenilworth, NJ, US). After blocking for 1 h with Blocking-One (Nacalai Tesque, Kyoto, Japan), proteins were detected by incubating the membranes with the primary antibody at 4 °C overnight (anti-Y397 2:2000, anti-Y925 5:2000 and anti-FAK 0.5:2000) followed by incubation with horseradish peroxidase-conjugated secondary antibodies at room temperature for 1 h (anti-mouse 0.5:2000 and anti-rabbit 0.4:2000)."}, "[2]": {"test_system": "paxillin phosphorylation at Y118 in HUVEC", "test": "Paxillin phosphorylation in HUVEC, Western blotting", "assay_type": "cell-based, human", "settings": "total paxillin unaltered", "excerpt": "Furthermore, we looked at FAK signaling pathway to validate our results. Paxillin binds to FAK 919–938 residues which is a sequence contained within the region where SQAP is predicted to bind. Binding between paxillin and FAK results in paxillin phosphorylation at Y118[35][36]. Thus, we examined paxillin phosphorylation. […] Additionally, we studied Akt phosphorylation at S473 on account of FAK is a known factor in control of Akt activity. We observed that Akt phosphorylation was diminished when treated with SQAP or SQMG for 21 h (see Supplementary Fig. S3).\nas §3"}, "HR23B": {"target": "T2, HR23B (Homo sapiens, UniProt P54727)", "T2 construct": "ADRM1 and HR23B human full length proteins were purchased; purchased Abnova (Taipei, Taiwan)", "T2 sequence (P54727 whole entry)": "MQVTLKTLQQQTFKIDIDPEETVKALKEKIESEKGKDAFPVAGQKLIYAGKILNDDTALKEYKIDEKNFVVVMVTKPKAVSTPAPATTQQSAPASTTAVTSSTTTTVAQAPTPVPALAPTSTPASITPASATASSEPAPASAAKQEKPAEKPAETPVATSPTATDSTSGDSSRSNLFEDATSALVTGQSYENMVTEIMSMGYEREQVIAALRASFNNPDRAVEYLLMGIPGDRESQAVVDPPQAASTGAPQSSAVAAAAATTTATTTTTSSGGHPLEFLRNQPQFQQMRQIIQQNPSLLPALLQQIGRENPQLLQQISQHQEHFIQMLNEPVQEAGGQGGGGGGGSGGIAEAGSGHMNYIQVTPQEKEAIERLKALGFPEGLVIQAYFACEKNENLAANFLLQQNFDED", "test": "SPR analysis, immobilized GST-HR23B (GST control subtracted)", "assay_type": "binding", "settings": "no kinetic analysis", "excerpt": "as §1, §2"}},
  "note": "pKd: −log10 of the molar value.",
  "data": [
    {"compound": "CCCCCCCCCCCCCCCCCC(=O)OCCCO[C@H]1O[C@H](CS(=O)(=O)O)[C@@H](O)[C@H](O)[C@H]1O", "note": "[SQAP, sulfoquynovosylacylpropanediol]", "values": [
      {"measurement": "pKd", "setting": "FAK (910–1052)", "result": 5.49},
      {"measurement": "cell migration", "setting": "HUVEC cells", "result": "arrested"},
      {"measurement": "phosphorylation level of FAK at Y397 and at Y925 after VEGF stimulation", "setting": "[1]; VEGF 50 ng/mL, 1 h", "result": "appreciably reduced"},
      {"measurement": "phosphorylation of FAK in the absence of VEGF", "setting": "[1]; no VEGF, within 1 h", "result": "inhibited"},
      {"measurement": "paxillin phosphorylation at Y118", "setting": "[2]", "result": "inhibition of paxillin-phosphorylation"},
      {"measurement": "binding to HR23B (SPR response)", "setting": "HR23B", "result": "specific binding response of SQAP in a dose-dependent manner"}
    ]}
  ]
}
